In the NIST ThermoML archive (doi:10.1021/acs.jced.5b00691):

Columns and labels:
[1] = for surface tension liquid-gas: surface light scattering; for kinematic viscosity / mass density: Liquid; for kinematic viscosity: Surface laser light scattering (SLLS); for mass density: Vibrating tube method
[2] = xn = mol fraction of the nth substance listed; settings: for surface tension liquid-gas: surface light scattering; for kinematic viscosity / mass density: Liquid; for kinematic viscosity: Surface Light Scattering; for mass density: Vibrating tube method

COC(F)(C(F)(F)C(F)(F)F)C(F)(C(F)(F)F)C(F)(F)F (stereo not given)
[1]
Settings	kinematic viscosity [m2/s]	mass density [kg/m3]	surface tension liquid-gas [mN/m]
273.15 K	1.01e-06	1714.26	16.56
278.15 K	–	1702.92	–
283.15 K	8.49e-07	1691.49	15.81
288.15 K	–	1680.02	–
293.15 K	7.37e-07	1668.48	14.97
298.15 K	–	1656.86	–
303.15 K	6.31e-07	1645.14	14.15
308.15 K	–	1633.38	–
313.15 K	5.56e-07	1621.44	13.43
318.15 K	–	1609.41	–
323.15 K	4.92e-07	1597.29	12.61
328.15 K	–	1585.05	–
333.15 K	4.36e-07	1572.65	11.79
338.15 K	–	1560.14	–
343.15 K	3.95e-07	1547.49	11.03
348.15 K	–	1534.67	–
353.15 K	3.52e-07	1521.68	10.16
358.15 K	–	1508.51	–
363.15 K	3.15e-07	1495.16	9.43
373.15 K	2.88e-07	–	8.64

CCOC(F)(C(F)(F)C(F)(F)C(F)(F)F)C(F)(C(F)(F)F)C(F)(F)F (stereo not given) [2-trifluoromethyl-3-ethoxydodecafluorohexane]
[1]
Settings	kinematic viscosity [m2/s]	mass density [kg/m3]	surface tension liquid-gas [mN/m]
273.15 K	1.14e-06	1670.6	16.92
278.15 K	–	1660.59	–
283.15 K	9.38e-07	1650.49	16.23
288.15 K	–	1640.35	–
293.15 K	8.04e-07	1630.17	15.52
298.15 K	–	1619.92	–
303.15 K	6.91e-07	1609.61	14.75
308.15 K	–	1599.24	–
313.15 K	6.11e-07	1588.77	14.07
318.15 K	–	1578.28	–
323.15 K	5.38e-07	1567.69	13.3
328.15 K	–	1557	–
333.15 K	4.71e-07	1546.2	12.65
338.15 K	–	1535.3	–
343.15 K	4.28e-07	1524.31	11.89
348.15 K	–	1513.21	–
353.15 K	3.88e-07	1501.99	11.13
358.15 K	–	1490.64	–
363.15 K	3.52e-07	1479.16	10.4
373.15 K	3.17e-07	–	9.66

COC(F)(F)C(F)(F)C(F)(F)F [heptafluoropropyl methyl ether]
[1]
Settings	kinematic viscosity [m2/s]	mass density [kg/m3]	surface tension liquid-gas [mN/m]
273.15 K	4.22e-07	1471.16	14.49
278.15 K	–	1458.15	–
283.15 K	3.65e-07	1444.94	13.31
288.15 K	–	1431.58	–
293.15 K	3.3e-07	1418.04	12.33
298.15 K	–	1404.3	–
303.15 K	2.9e-07	1390.35	11.23
308.15 K	–	1376.15	–
313.15 K	2.64e-07	1361.67	10.27
318.15 K	–	1346.91	–
323.15 K	2.37e-07	1331.89	9.23
328.15 K	–	1316.54	–
333.15 K	2.2e-07	1300.86	8.28
338.15 K	–	1284.82	–
343.15 K	2.01e-07	1268.38	7.36
348.15 K	–	1251.45	–
353.15 K	1.8e-07	1234.05	6.38
358.15 K	–	1216.87	–
363.15 K	1.66e-07	1199.54	5.48
373.15 K	1.53e-07	–	4.62

COC(F)(F)C(F)(C(F)(F)F)C(F)(F)F [methyl nonafluoroisobutyl ether] + COC(F)(F)C(F)(F)C(F)(F)C(F)(F)F
[2], x1 = 0.623
Settings	kinematic viscosity [m2/s]	mass density [kg/m3]	surface tension liquid-gas [mN/m]
273.15 K	6.64e-07	1579.23	15.82
278.15 K	–	1566.86	–
283.15 K	5.7e-07	1554.37	14.82
288.15 K	–	1541.76	–
293.15 K	4.84e-07	1529.03	13.8
298.15 K	–	1516.15	–
303.15 K	4.28e-07	1503.18	12.89
308.15 K	–	1490.04	–
313.15 K	3.81e-07	1476.74	11.92
318.15 K	–	1463.23	–
323.15 K	3.38e-07	1449.5	11
328.15 K	–	1435.61	–
333.15 K	3.06e-07	1421.48	10.06
338.15 K	–	1407.13	–
343.15 K	2.77e-07	1392.52	9.13
348.15 K	–	1377.65	–
353.15 K	2.46e-07	1362.5	8.16
358.15 K	–	1347.04	–
363.15 K	2.28e-07	1331.24	7.32
373.15 K	2.09e-07	–	6.46

CCOC(F)(F)C(F)(C(F)(F)F)C(F)(F)F [nonafluoroisobutyl ethyl ether] + CCOC(F)(F)C(F)(F)C(F)(F)C(F)(F)F
[2], x1 = 0.613
Settings	kinematic viscosity [m2/s]	mass density [kg/m3]	surface tension liquid-gas [mN/m]
273.15 K	6.63e-07	1478.05	16.03
278.15 K	–	1467.14	–
283.15 K	5.56e-07	1456.15	14.9
288.15 K	–	1445.07	–
293.15 K	4.82e-07	1433.94	14.01
298.15 K	–	1422.65	–
303.15 K	4.29e-07	1411.31	13.21
308.15 K	–	1399.85	–
313.15 K	3.82e-07	1388.27	12.33
318.15 K	–	1376.56	–
323.15 K	3.43e-07	1364.66	11.42
328.15 K	–	1352.68	–
333.15 K	3.13e-07	1340.45	10.56
338.15 K	–	1328.09	–
343.15 K	2.83e-07	1315.57	9.67
348.15 K	–	1302.85	–
353.15 K	2.56e-07	1289.93	8.84
358.15 K	–	1276.74	–
363.15 K	2.38e-07	1263.25	7.99
373.15 K	2.22e-07	–	7.19
